# Experimental data as given in US8058264B2, “Pharmaceutical compositions comprising CB1 cannabinoid receptor antagonists and potassium channel openers for the treatment of obesity and related conditions” (Abbott Products GmbH, priority 2004, dated 2011).
# Target: T1, hamster SUR1 (Cricetus cricetus, UniProt Q09427)
# T1 construct: expressed in transfected cells; host or cells: COS-1 cells, transient transfection (pcDNA vector), membrane preparation
# Experiment: Competitive binding to sulfonylurea and KCO sites of SUR1 ([3H]glibenclamide displacement, COS-cell membranes)
# Conditions: SUR1 versus SUR2 selectivity, in words
# Experimental: Competitive binding experiments were performed to characterize the affinity of the test compounds for the binding sites for sulfonylureas and KATP channel openers (=KCOs) on hamster SUR1. To assess the affinity for the sulfonylurea site membranes from COS-cells transiently expressing hamster SUR1 were incubated in the presence of [^3H]glibenclamide with increasing concentrations of test compounds. […] Per curve 9-15 distinct concentrations were tested covering the relevant range. All measurements were repeated at least 5 times in independent experiments.
# [^3H]glibenclamide (specific activity 51 Ci mmol^−1) was obtained from NEN (Dreieich, Germany). If suitable, stock solutions were prepared in dimethylsulfoxide with a final solvent concentration in the media below 1%.
# SUR- or Kir6.x isoforms were used either subcloned in the pcDNA (hamster SUR1, mouse Kir6.2) or pCMV vector (rat SUR2A, SUR2B).
# For transfection the cells were incubated 4 hours in a Tris-buffered salt solution containing DNA (5-10 μg/ml) plus DEAE-dextran (1 mg/ml), 2 min in HEPES-buffered salt solution plus dimethylsulfoxide (10%) and 4 hours in DMEM-HG plus chloroquine (100 μM). Cells were then returned to DMEM-HG plus 10% FCS. […] For binding experiments resuspended membranes (final protein concentration 5-50 μg/ml) were incubated in “Tris-buffer” (50 mM, pH 7.4) containing either [^3H]glibenclamide (final concentration 0.3 nM or 3 nM and nonspecific binding defined by 100 nM or 1 μM glibenclamide for SUR1 or SUR2Y1205S-isoforms, respectively) or [^3H]P1075 (final concentration 3 nM, nonspecific binding defined by 100 μM pinacidil) and increasing concentrations of the test compounds. […] Incubations were carried out for 1 h at room temperature and were terminated by rapid filtration through Whatman GF/B filters.
# The inhibition constant (Ki value) of the test substances was calculated from the respective IC50 value, and was stated as the negative logarithmised value thereof (pKi).
# T1 sequence (Q09427 whole entry): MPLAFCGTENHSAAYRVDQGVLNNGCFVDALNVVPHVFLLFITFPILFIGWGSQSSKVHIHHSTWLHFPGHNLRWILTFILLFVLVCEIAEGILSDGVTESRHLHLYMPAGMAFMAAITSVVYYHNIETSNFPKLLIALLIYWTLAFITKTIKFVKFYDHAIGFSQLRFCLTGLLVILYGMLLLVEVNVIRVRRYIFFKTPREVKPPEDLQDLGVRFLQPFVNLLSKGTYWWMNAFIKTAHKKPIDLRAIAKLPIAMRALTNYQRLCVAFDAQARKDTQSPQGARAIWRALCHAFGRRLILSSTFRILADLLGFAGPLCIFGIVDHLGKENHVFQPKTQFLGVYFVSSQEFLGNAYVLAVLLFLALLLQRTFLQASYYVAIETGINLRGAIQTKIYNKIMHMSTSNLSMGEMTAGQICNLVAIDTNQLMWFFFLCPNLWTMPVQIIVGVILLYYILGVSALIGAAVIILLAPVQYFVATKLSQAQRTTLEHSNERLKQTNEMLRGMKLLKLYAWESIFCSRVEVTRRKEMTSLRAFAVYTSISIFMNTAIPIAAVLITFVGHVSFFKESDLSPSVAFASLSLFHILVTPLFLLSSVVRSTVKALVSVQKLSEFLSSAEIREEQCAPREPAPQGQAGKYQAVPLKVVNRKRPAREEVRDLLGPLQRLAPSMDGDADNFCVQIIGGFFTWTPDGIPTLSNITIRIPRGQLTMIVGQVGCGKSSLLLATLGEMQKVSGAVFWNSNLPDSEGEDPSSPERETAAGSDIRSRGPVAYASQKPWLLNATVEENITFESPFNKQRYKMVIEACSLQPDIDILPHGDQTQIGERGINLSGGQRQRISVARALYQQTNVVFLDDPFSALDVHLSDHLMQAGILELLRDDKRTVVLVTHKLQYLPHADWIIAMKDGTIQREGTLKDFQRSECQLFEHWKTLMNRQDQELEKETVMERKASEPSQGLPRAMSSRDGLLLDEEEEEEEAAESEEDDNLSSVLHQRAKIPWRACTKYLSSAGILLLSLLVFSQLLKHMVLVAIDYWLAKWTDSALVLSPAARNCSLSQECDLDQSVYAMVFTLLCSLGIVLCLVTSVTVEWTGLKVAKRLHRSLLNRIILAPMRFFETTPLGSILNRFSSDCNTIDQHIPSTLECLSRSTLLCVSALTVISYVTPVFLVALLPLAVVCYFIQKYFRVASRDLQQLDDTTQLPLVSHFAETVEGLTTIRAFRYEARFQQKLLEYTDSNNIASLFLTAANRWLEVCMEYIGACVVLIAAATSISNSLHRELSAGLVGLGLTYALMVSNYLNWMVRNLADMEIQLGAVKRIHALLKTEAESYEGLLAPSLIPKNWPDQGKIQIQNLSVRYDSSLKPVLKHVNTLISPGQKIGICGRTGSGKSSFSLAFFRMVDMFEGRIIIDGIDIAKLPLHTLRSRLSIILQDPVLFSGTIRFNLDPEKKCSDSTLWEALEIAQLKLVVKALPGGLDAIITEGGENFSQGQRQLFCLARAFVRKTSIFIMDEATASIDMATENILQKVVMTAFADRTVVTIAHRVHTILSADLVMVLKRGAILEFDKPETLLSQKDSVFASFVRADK
row,Compound,pki (SUR1) compared with pki (SUR2)
1,"CNC(=NS(=O)(=O)N1CCOCC1)C1=NN(c2ccc(Cl)cc2Cl)C(c2ccccc2)C1 (stereo not drawn) [1-(2,4-dichlorophenyl)-N-methyl-N′-(morpholin-4-ylsulfonyl)-5-phenyl-4,5-dihydro-1H-pyrazole-3-carboximidamide]",pki (SUR1) larger than pki (SUR2)
2,"CCc1c(C(=O)NN2CCCCC2)nc(-c2ccc(Cl)cc2Cl)n1-c1ccc(Br)cc1 [1-(4-bromophenyl)-2-(2,4-dichloro-phenyl)-5-ethyl-N-piperidin-1-yl-1H-imidazole-4-carboxamide]",pki (SUR1) larger than pki (SUR2)
3,"CCCCCNC(=O)c1nc(-c2ccc(Cl)cc2Cl)n(-c2ccc(Br)cc2)c1CC [1-(4-bromophenyl)-2-(2,4-dichlorophenyl)-5-ethyl-N-pentyl-1H-imidazole-4-carboxamide]",pki (SUR1) larger than pki (SUR2)
4,"CCCCCc1nc(-c2ccc(Cl)cc2Cl)n(-c2ccc(Cl)cc2)c1C [1-(4-chlorophenyl)-2-(2,4-dichlorophenyl)-5-methyl-4-pentyl-1H-imidazole]",pki (SUR1) larger than pki (SUR2)
5,"CCN(CC)C(=O)c1cn(-c2ccc(Cl)cc2)c(-c2ccc(Cl)cc2Cl)n1 [1-(4-chlorophenyl)-2-(2,4-dichlorophenyl)-N,N-diethyl-1H-imidazole-4-carboxamide]",pki (SUR1) larger than pki (SUR2)
6,"CSc1c(C(=O)NC2CCCCC2)nc(-c2ccc(Cl)cc2Cl)n1-c1ccc(Cl)cc1 [1-(4-chlorophenyl)-N-cyclohexyl-2-(2,4-dichlorophenyl)-5-(methylthio)-1H-imidazole-4-carboxamide]",pki (SUR1) larger than pki (SUR2)
7,"CNC(=NS(=O)(=O)N1CCCCC1)C1=NN(c2ccc(Cl)cc2)C(c2ccccc2)C1 (stereo not drawn) [1-(4-chlorophenyl)-N-methyl-5-phenyl-N′-(piperidin-1-yl-sulfonyl)-4,5-dihydro-1H-pyrazole-3-carboximidamide]",pki (SUR1) larger than pki (SUR2)
8,"CS(=O)(=O)C(=C1CN(C(c2ccc(Cl)cc2)c2ccc(Cl)cc2)C1)c1cc(F)cc(F)c1 [1-[bis(4-chlorophenyl)methyl]-3-[(3,5-difluorophenyl)(methylsulfonyl)-methylene]azetidine]",pki (SUR1) larger than pki (SUR2)
9,"CCCCC(C)(O)c1nc(-c2ccc(Cl)cc2Cl)n(-c2ccc(Cl)cc2)c1C (stereo not drawn) [2-[1-(4-chlorophenyl)-2-(2,4-dichlorophenyl)-5-methyl-1H-imidazol-4-yl]hexan-2-ol]",pki (SUR1) larger than pki (SUR2)
10,"CCC1CN=C(N2CC(c3ccccc3)C(c3ccc(Cl)cc3)=N2)O1 (stereo not drawn) [2-[3-(4-chlorophenyl)-4-phenyl-4,5-dihydro-1H-pyrazol-1-yl]-5-ethyl-4,5-dihydro-1,3-oxazole]",pki (SUR1) larger than pki (SUR2)
11,"O=C1c2ccccc2S(=O)(=O)N1C1CN(C(c2ccc(Cl)cc2)c2ccc(Cl)cc2)C1 [2-{1-[bis(4-chlorophenyl)methyl]azetidin-3-yl}-1,2-benzisothiazol-3(2H)-one 1,1-dioxide]",pki (SUR1) larger than pki (SUR2)
12,"CNC(=NS(=O)(=O)N1CCOCC1)N1CC(c2ccccc2)C(c2ccc(Cl)cc2)=N1 (stereo not drawn) [3-(4-chlorophenyl)-N-methyl-N′-(morpholin-4-ylsulfonyl)-4-phenyl-4,5-dihydro-1H-pyrazole-1-carboximidamide]",pki (SUR1) larger than pki (SUR2)
13,"NC(=NS(=O)(=O)c1ccc(Cl)cc1)N1CC(c2ccccc2)C(c2ccc(Cl)cc2)=N1 (stereo not drawn) [3-(4-chlorophenyl)-N′-[(4-chlorophenyl)sulfonyl]-4-phenyl-4,5-dihydro-1H-pyrazole-1-carboximidamide]",pki (SUR1) larger than pki (SUR2)
14,"O=S(=O)(N=C(NCc1cccnc1)N1CC(c2ccccc2)C(c2ccc(Cl)cc2)=N1)c1ccc(Cl)cc1 (stereo not drawn) [3-(4-chlorophenyl)-N′-[(4-chlorophenyl)sulfonyl]-4-phenyl-N-(pyridin-3-ylmethyl)-4,5-dihydro-1H-pyrazole-1-carboximidamide]",pki (SUR1) larger than pki (SUR2)
15,"CN1CCC(CNC(=NS(=O)(=O)c2ccc(Cl)cc2)N2CC(c3ccccc3)C(c3ccc(Cl)cc3)=N2)C1 (stereo not drawn) [3-(4-chlorophenyl)-N′-[(4-chlorophenyl)sulfonyl]-N-[(1-methylpyrrolidin-3-yl)-methyl]-4-phenyl-4,5-dihydro-1H-pyrazole-1-carboximidamide]",pki (SUR1) larger than pki (SUR2)
16,"CNC(=NS(=O)(=O)c1ccc(Cl)cc1)N1CC(c2cccnc2)C(c2ccc(Cl)cc2)=N1 (stereo not drawn) [3-(4-chlorophenyl)-N′-[(4-chlorophenyl)sulfonyl]-N-methyl-4-pyridin-3-yl-4,5-dihydro-1H-pyrazole-1-carboximidamide]",pki (SUR1) larger than pki (SUR2)
17,"CNC(=NS(=O)(=O)N(C)C)N1CC(c2cccc(F)c2)C(c2ccc(Cl)cc2)=N1 (stereo not drawn) [3-(4-chlorophenyl)-N′-[(dimethyl-amino)sulfonyl]-4-(3-fluorophenyl)-N-methyl-4,5-dihydro-1H-pyrazole-1-carboximidamide]",pki (SUR1) larger than pki (SUR2)
18,"CN(C)S(=O)(=O)N=C(NCCF)N1CC(c2ccccc2)C(c2ccc(Cl)cc2)=N1 (stereo not drawn) [3-(4-chlorophenyl)-N′-[(dimethylamino)sulfonyl]-N-(2-fluoro-ethyl)-4-phenyl4,5-dihydro-1H-pyrazole-1-carboximidamide]",pki (SUR1) larger than pki (SUR2)
19,"CCCCCCC(C)(C)c1ccc([C@@H]2C[C@H](O)CC[C@H]2CCCO)c(O)c1 [5-(1,1-dimethylheptyl)-2-[(1R,2R,5R)-5-hydroxy-2-(3-hydroxypropyl)cyclohexyl]-phenol]",pki (SUR1) larger than pki (SUR2)
20,"O=C(NS(=O)(=O)c1ccc(Cl)cc1)c1cc(-c2ccc(Br)cc2)n(-c2ccc(Cl)cc2Cl)n1 [5-(4-bromophenyl)-N-[(4-chlorophenyl)sulfonyl]-1-(2,4-dichlorophenyl)-1H-pyrazole-3-carboxamide]",pki (SUR1) larger than pki (SUR2)
21,"O=C(NN1CCCCC1)c1nn(-c2ccc(Cl)cc2Cl)c2c1CCCc1cc(Cl)ccc1-2 [8-chloro-1-(2,4-dichlorophenyl)-N-piperidin-1-yl-1,4,5,6-tetrahydrobenzo[6,7]cyclohepta[1,2-c]pyrazole-3-carboxamide]",pki (SUR1) larger than pki (SUR2)
22,"N[C@@H](Cc1ccc(Cl)c(Cl)c1)C(=O)N1CC(c2ccccc2)C(c2ccc(Cl)cc2)=N1 (stereo partly drawn) [(2S)-1-[3-(4-chlorophenyl)-4-phenyl-4,5-dihydro-1H-pyrazol-1-yl]-3-(3,4-dichloro-phenyl)-1-oxopropan-2-amine]",pki (SUR1) larger than pki (SUR2)
23,"NC(=NS(=O)(=O)c1ccc(Cl)cc1)N1C[C@H](c2ccccc2)C(c2ccc(Cl)cc2)=N1 [(4S)-3-(4-chlorophenyl)-N′-[(4-chlorophenyl)sulfonyl]-4-phenyl-4,5-dihydro-1H-pyrazole-1-carboximidamide]",pki (SUR1) larger than pki (SUR2)
24,"Cc1c(NC(=O)c2ccccc2)nc(-c2ccc(Cl)cc2Cl)n1-c1ccc(Cl)cc1 [N-[1-(4-chlorophenyl)-2-(2,4-di-chlorophenyl)-5-methyl-1H-imidazol-4-yl]benzamide]",pki (SUR1) larger than pki (SUR2)
